From patent US20180168160A1, “MICROBICIDAL COMPOSITION” (Rohm and Haas Company, priority 2015, published 2018) come the findings set out here.

Test [1] concerns consortium of selected bacterial species, Escherichia coli (ATCC #25922), Pseudomonas aeruginosa (ATCC #9027, Staphylococcus aureus (ATCC #6538) and Klebsiella …). Description: Synergy test, high resolution MIC microtiter plate assay against a bacterial consortium. Type of test: cell-based. The note with it: M9GY medium, 35° C., 24 hrs, visual turbidity, active ingredient basis. From the text:
(§1) One measure of synergism is the industrially accepted method described by Kull, F. C.; Eisman, P. C.; Sylwestrowicz, H. D. and Mayer, R. L., in Applied Microbiology 9:538-541 (1961), using the ratio determined by the formula: Qa/QA+Qb/QB=Synergy Index (“SI”) wherein: QA=concentration of compound A (first component) in ppm, acting alone, which produced an end point (MIC of Compound A). QA=concentration of compound A in ppm, in the mixture, which produced an end point. QB=concentration of compound B (second component) in ppm, acting alone, which produced an end point (MIC of Compound B). Qb=concentration of compound B in ppm, in the mixture, which produced an end point.
(§2) When the sum of Qa/QA and Qb/QB is greater than one, antagonism is indicated. […] The lower the SI, the greater the synergy shown by that particular mixture. The minimum inhibitory concentration (MIC) of a microbicide is the lowest concentration tested under a specific set of conditions that prevents the growth of added microorganisms.
(§3) Synergy tests were conducted using standard microtiter plate assays with media designed for optimal growth of the test microorganism. Minimal salt medium supplemented with 0.2% glucose and 0.1% yeast extract (M9GY medium) was used for testing bacteria. In this method, a wide range of combinations of microbicides was tested by conducting high resolution MIC assays in the presence of various concentrations of DMDMH and Dazomet or THNM and Dazomet. High resolution MICs were determined by adding varying amounts of microbicide to one column of a microtiter plate and doing subsequent […] dilutions using an automated liquid handling system to obtain a series of endpoints ranging from 2 ppm to 1,000 ppm active ingredient.
(§4) The synergy of the combinations of the present invention was determined against a consortium of selected bacterial species, Escherichia coli (ATCC #25922), Pseudomonas aeruginosa (ATCC #9027, Staphylococcus aureus (ATCC #6538) and Klebsiella pneumoniae (ATCC #13883). The consortium was prepared using approximately 1×10^6 CFU per mL of each species. These microorganisms are representative of natural contaminants in many industrial applications. The plates were visually evaluated for microbial growth (turbidity) to determine the MIC after selected incubation times at 35° C. after 24 hrs.
(§5) In each test, Second Component (B) was Dazomet and the First Component (A) was DMDMH.

Experiment in test [2]: as above
To be noted: M9GY medium, 35° C., 24 hrs, visual turbidity, active ingredient basis. Type of test: cell-based.
Excerpt: as §1, §2, §3, §4, §5

SMILES strings stand for the structures. Where two headings read alike, the source gives them in different places.

As to `CC1(C)C(=O)N(CO)C(=O)N1CO` [DMDMH, dimethylol-dimethylhydantoin], the “MIC of DMDMH alone (QA)” value in test [1] (Table 1) was 200 µg/mL.
In the case of `CN1CSC(=S)N(C)C1` [Dazomet, 3,5-dimethyl-1,3,5-thiadiazinane-2-thione], the MIC in test [2] (Table 1, read-out: MIC of Dazomet alone (QB)) was 100 µg/mL. In addition, in test [1] (Table 2), the “MIC of Dazomet alone (QB)” value was determined as 100 µg/mL.
Turning to `O=[N+]([O-])C(CO)(CO)CO` [THNM, tris(hydroxymethyl)nitromethane], the MIC in test [2] (Table 2, read-out: MIC of THNM alone (QA)) came to 400 µg/mL.

What is called MIC is the smallest concentration in the dilution series that meets the test's criterion for growth inhibition.
